Data on six compounds can be found in PMC5057115, “Cathelicidins in the Tasmanian devil (Sarcophilus harrisii)” (Scientific Reports, 2016).

The subject of one data set is human red blood cells. The format is cell-based. The following applies: red cells of human, 24 h. The method, then:
Tissue expression of devil cathelicidin prepropeptides was determined by real-time PCR on a range of secretory, immune, reproductive, gastrointestinal and respiratory tissues, as well as BLAST searches of the milk transcriptome. Opportunistic tissue samples for real-time PCR were collected from Taronga Zoo (Sydney) from devils which were subject to euthanasia due to old age and advanced disease. […] Ltd. and their antimicrobial activity against bacterial and fungal pathogens determined by broth microdilution susceptibility assay according to clinical laboratory standards institute guidelines. Antimicrobial activity was expressed as minimum inhibitory concentration (MIC). Cytotoxicity was assessed in the human cell line A549 and haemolytic activity determined against human blood. Statistical significance of peptide effect on cell survival in comparison to the untreated control was calculated using a one sample t-test. Pouch microbiome analysis was performed on swabs from the pouch of lactating and non-lactating devils to detect changes in microbe populations. Pouch swab collection was carried out in accordance with the Save the Tasmanian Devil Program and was approved by the Animal Ethics Committee of the University of Sydney (permit number 681). page 3: […] Two antibiotics, ampicillin and tetracycline, were included as a positive control for bacteria, and the […] A well containing cells and media only was used as a “no drug” control to ensure that cultures grew normally. Bacteria were subcultured on Mueller Hinton agar (MHA) or Sheep blood agar (BA) for 24 hours at 35 °C for Staphylococcus spp., Pseudomonas spp., Enterococcus spp. and E.coli, with 5% CO2 for Streptococcus spp., K.pneumoniae, P.multocida, […] Similarly, fungi were subcultured on Sabouraud agar (SAB) at 35 °C for 24 hours prior to the test. Colonies were resuspended in saline and the OD530 measured with a McFarland reader. If necessary the suspension was diluted to 0.45-0.55 McFarland units with saline. […] Assays Antimicrobial activity was expressed as minimum inhibitory concentration (MIC), which was defined as the lowest concentration of cathelicidin preventing visible growth, relative to the negative control. Colonies which grew on agar plates were also counted. Cytotoxicity Cytotoxicity was assessed in the human A549 cell line maintained in Dulbecco’s Modification of Eagle’s Medium (DMEM) supplemented with 10% foetal bovine serum (FBS), 2mM L -glutamine, 50units/mL penicillin and 50μg/mL streptomycin. […] Following incubation for a further 24 hours, cell viability was determined using alamar blue (Invitrogen) which was added to each well. […]

Data set [1] relates to 25 bacterial and 6 fungal strains. The format is cell-based. The conditions noted are these: against the bacteria and fungi tested (25 bacterial and 6 fungal strains of Table 2), broth microdilution (CLSI). The text has this:
To assess the antimicrobial activity of devil cathelicidins, we tested synthesized mature peptides on 25 bacterial and 6 fungal strains (Table 2). As there were no Tasmanian devil specific isolates available, human and veterinary strains were used. The antimicrobial activity of Tasmanian devil cathelicidin mature peptides Saha-CATH1 to 6 against bacteria and fungi is summarised in Table 2. […] As such, these values are not included in Table 2. Saha-CATH3 had highly specific activity, as it was unable to kill any bacteria, but killed Cryptococcus neoformans. […]
Tissue expression of devil cathelicidin prepropeptides was determined by real-time PCR on a range of secretory, immune, reproductive, gastrointestinal and respiratory tissues, as well as BLAST searches of the milk transcriptome. […] The mature peptides of all six devil cathelicidins were synthesised by ChinaPeptides Co. Ltd. and their antimicrobial activity against bacterial and fungal pathogens determined by broth microdilution susceptibility assay according to clinical laboratory standards institute guidelines. Antimicrobial activity was expressed as minimum inhibitory concentration (MIC). Cytotoxicity was assessed in the human cell line A549 and haemolytic activity determined against human blood. Statistical significance of peptide effect on cell survival in comparison to the untreated control was calculated using a one sample t-test. […]
For orientation: In broth dilution the organism is exposed to a series of concentrations in liquid medium.

The next data set deals with P. aeruginosa ATCC 27853. Kind of data set: microbe, parasite or virus in culture. The format is cell-based, Pseudomonas aeruginosa. The following applies: Pseudomonas aeruginosa, ATCC27853; broth microdilution (CLSI), 64 to 0.125 μg/mL, 24 h at 35 °C; ATCC strain; read-out: MIC. The method, then:
(§1) Tissue expression of devil cathelicidin prepropeptides was determined by real-time PCR on a range of secretory, immune, reproductive, gastrointestinal and respiratory tissues, as well as BLAST searches of the milk transcriptome. Opportunistic tissue samples for real-time PCR were collected from Taronga Zoo (Sydney) from devils which were subject to euthanasia due to old age and advanced disease. The mature peptides of all six devil cathelicidins were synthesised by ChinaPeptides Co. Ltd. and their antimicrobial activity against bacterial and fungal pathogens determined by broth microdilution susceptibility assay according to clinical laboratory standards institute guidelines. Antimicrobial activity was expressed as minimum inhibitory concentration (MIC). Cytotoxicity was assessed in the human cell line A549 and haemolytic activity determined against human blood. Statistical significance of peptide effect on cell survival in comparison to the untreated control was calculated using a one sample t-test. Pouch microbiome analysis was performed on swabs from the pouch of lactating and non-lactating devils to detect changes in microbe populations. Pouch swab collection was carried out in accordance with the Save the Tasmanian Devil Program and was approved by the Animal Ethics Committee of the University of Sydney (permit number 681). […]
(§2) base (YNB) for fungi, from a concentration of 64μg/mL to 0.125μg/mL in a final volume of 100 μL .
(§3) Two antibiotics, ampicillin and tetracycline, were included as a positive control for bacteria, and the antifungal drug fluconazole for fungi. A well containing cells and media only was used as a “no drug” control to ensure that cultures grew normally. Bacteria were subcultured on Mueller Hinton agar (MHA) or Sheep blood agar (BA) for 24 hours at 35 °C for Staphylococcus spp., Pseudomonas spp., Enterococcus spp. and E.coli, with 5% CO2 for Streptococcus spp., K.pneumoniae, P.multocida, L.monocytogenes and N.asteroides. Similarly, fungi were subcultured on Sabouraud agar (SAB) at 35 °C for 24 hours prior to the test. Colonies were resuspended in saline and the OD530 measured with a McFarland reader. If necessary the suspension was diluted to 0.45-0.55 McFarland units with saline. […] Assays Antimicrobial activity was expressed as minimum inhibitory concentration (MIC), which was defined as the lowest concentration of cathelicidin preventing visible growth, relative to the negative control. […]
(§4) 570nm and 620nm using the Victor 3 multilabel plate reader (PerkinElmer). […] To x i city of cathelicidins was calculated according to Invitrogen recommendations and expressed as percentage cell survival compared to the untreated growth control. […]
(§5) Haemolytic activity was assessed using 10mL of human blood collected into potassium -ED T A vacutainers (BD). […]

The next data set has as its system S. aureus ATCC 29213. Kind of data set: microbe, parasite or virus in culture. The format is cell-based, Staphylococcus aureus. The conditions noted are these: Staphylococcus aureus, ATCC29213; broth microdilution (CLSI), 64 to 0.125 μg/mL, 24 h at 35 °C; ATCC strain; read-out: MIC. The method, then: as §1, §2, §3, §4, §5
The next data set deals with E. faecalis ATCC 29212. Kind of data set: microbe, parasite or virus in culture. The format is cell-based, Enterococcus faecalis. The conditions noted are these: Enterococcus faecalis, ATCC29212; broth microdilution (CLSI), 64 to 0.125 μg/mL, 24 h at 35 °C; ATCC strain; read-out: MIC. The method, then:
as §1, §2, §3, §4, §5

The subject of the next data set is S. pneumoniae ATCC 49619. The data set is described as follows: microbe, parasite or virus in culture. The format is cell-based. The conditions noted are these: Streptococcus pneumoniae, ATCC49619; broth microdilution (CLSI), 64 to 0.125 μg/mL, 24 h at 35 °C with 5% CO2; ATCC strain; read-out: MIC. Here is the method: as §1, §2
(§6) Two antibiotics, ampicillin and tetracycline, were included as a positive control for bacteria, and the antifungal drug fluconazole for fungi. A well containing cells and media only was used as a “no drug” control to ensure that cultures grew normally. Bacteria were subcultured on Mueller Hinton agar (MHA) or Sheep blood agar (BA) for 24 hours at 35 °C for Staphylococcus spp., Pseudomonas spp., Enterococcus spp. and E.coli, with 5% CO2 for Streptococcus spp., K.pneumoniae, P.multocida, L.monocytogenes and N.asteroides. Similarly, fungi were subcultured on Sabouraud agar (SAB) at 35 °C for 24 hours prior to the test. Colonies were resuspended in saline and the OD530 measured with a McFarland reader. If necessary the suspension was diluted to 0.45-0.55 McFarland units with saline. Following a 1:150 dilution for bacteria and twostep dilution for fungi (1:50, 1:20), 100 μL of microorganisms (1x106 – 5 x10^5 cells/mL) were pipetted into wells 2-12, the first well acting as a negative control. Colony counts were performed using a 1:1000 dilution for bacteria and 1:10 for fungi spread onto MHA/BA or SAB plates respectively. The 96 well microdilution and agar plates were incubated for 24 hours at 35 °C (Escherichia coli, Staphylococcus spp., Enterococcus spp. and Pseudomonas spp.), with 5% CO2 (Streptococcus spp. Pasteurella multocida, Klebsiella pneumoniae, Listeria monocytogenes a nd Nocardia asteroids) for bacteria, and 35 °C for 48 hours (Candida spp .) or 72 hours (Cryptococcus spp.) for fungi. Assays Antimicrobial activity was expressed as minimum inhibitory concentration (MIC), which was defined as the lowest concentration of cathelicidin preventing visible growth, relative to the negative control. […]
(§7) DMEM and positive control of dimethylsulfoxide (DMSO) (1%) were also included. […]
(§8) 570nm and 620nm using the Victor 3 multilabel plate reader (PerkinElmer). The assay was performed on two separate occasions. To x i city of cathelicidins was calculated according to Invitrogen recommendations and expressed as percentage cell survival compared to the untreated growth control. A significant difference between cathelicidin treated and control cell survival was tested using a o ne sample t-test (p<0.05).
(§9) Haemolytic activity was assessed using 10mL of human blood collected into potassium -ED T A vacutainers (BD). The blood was washed three times with 30mL of calcium and magnesium -free Dulbecco’s phosphate buffered saline (DPBS) and cells were collected by centrifugation at 2000 x g […]
(§10) for 10 minutes. […]

A further data set has as its system E. coli ATCC 25922. The data set is described as follows: microbe, parasite or virus in culture. The format is cell-based, Escherichia coli. The conditions noted are these: Escherichia coli, ATCC25922; broth microdilution (CLSI), 64 to 0.125 μg/mL, 24 h at 35 °C, lowest concentration preventing visible growth; ATCC strain; read-out: MIC. Here is the method:
as §1, §2, §3, §4, §5

In data set [2] the test system is C. parapsilosis ATCC 22019. The data set is described as follows: microbe, parasite or virus in culture. The format is cell-based. The conditions noted are these: Lodderomyces parapsilosis, ATCC22019; broth microdilution (CLSI), YNB, 64 to 0.125 μg/mL, 48 hours at 35 °C; ATCC strain; read-out: MIC. Here is the method:
as §1, §2, §6, §7, §8, §9, §10

Values after ≈ are worked out from the molar mass of the structure shown. Where a SMILES comes first, the peptide text is derived from it. Where no end group is shown, it is not given here.

For “TFKRKNGSRKNGHRPGGYSLIALGNKKVLKAPYMESI [Saha-CATH2]”, the “haemolysis compared with the positive control” value with human red blood cells is recorded as “below 7%”. The “minimum inhibitory concentration (MIC)” value in data set [1] is given as “greater than 64 μg/mL”. As for `CN(C)[C@@H]1C(O)=C(C(N)=O)C(=O)[C@@]2(O)C(O)=C3C(=O)c4c(O)cccc4[C@@](C)(O)[C@H]3C[C@@H]12` [tetracycline, reference compound], the MIC stood at 8 mg/L (≈ 18 µM) in the data set with P. aeruginosa ATCC 27853 and 0.125 mg/L (≈ 0.281 µM) in the data set on S. aureus ATCC 29213. Turning to `CC1(C)S[C@@H]2[C@H](NC(=O)[C@H](N)c3ccccc3)C(=O)N2[C@H]1C(=O)O` [ampicillin, reference compound], the MIC in the data set on E. faecalis ATCC 29212 is 1 mg/L (≈ 2.86 µM); in the data set on S. pneumoniae ATCC 49619, 0.125 mg/L (≈ 0.358 µM); in the data set with E. coli ATCC 25922, 8 mg/L (≈ 22.9 µM). For the compound “KREDFLDQIIRDFRNFIYQKYRRLRDEFRKLRDILSG [Saha-CATH4]”, in the data set with human red blood cells, the “haemolysis compared with the positive control” value was “below 7%”. Further, in data set [1], the “minimum inhibitory concentration (MIC)” value is on record as “greater than 64 μg/mL”.

In the case of `OC(Cn1cncn1)(Cn1cncn1)c1ccc(F)cc1F` [fluconazole, reference compound], in data set [2], the MIC was 2 mg/L (≈ 6.53 µM). In the case of `CC[C@H](C)[C@H](NC(=O)CN)C(=O)N[C@@H](CCCCN)C(=O)N[C@@H](Cc1c[nH]cn1)C(=O)N[C@H](C(=O)N[C@@H](CC(C)C)C(=O)N[C@@H](Cc1ccccc1)C(=O)N[C@@H](CCSC)C(=O)N[C@@H](C)C(=O)N[C@@H](CCCCN)C(=O)N[C@H](C(=O)N[C@@H](CCCCN)C(=O)N[C@@H](CC(C)C)C(=O)N1CCC[C@H]1C(=O)N[C@@H](CCCNC(=N)N)C(=O)N[C@@H](C)C(=O)N[C@H](C(=O)N[C@@H](CS)C(=O)N[C@H](C(=O)N[C@@H](C)C(=O)N[C@@H](CCC(=O)O)C(=O)N[C@H](C(=O)N[C@@H](CCCCN)C(=O)N[C@@H](CCC(=O)O)C(=O)N[C@@H](CC(N)=O)C(=O)N[C@@H](CS)C(=O)N[C@@H](CC(=O)O)C(=O)N[C@@H](CCCNC(=N)N)C(=O)N[C@@H](CCCCN)C(=O)N[C@@H](CCCCN)C(=O)O)[C@@H](C)CC)[C@@H](C)O)[C@@H](C)O)[C@@H](C)O)[C@@H](C)CC` [Saha-CATH1] (H-GIKHILFMAKTKLPRATCTAEIKENCDRKK-OH; N-terminus and C-terminus assumed), the “haemolysis compared with the positive control” value in the data set with human red blood cells was “below 7%”.
